{"source": "patent US20240287138A1", "about": "“CYCLIC PEPTIDES FOR INHIBITING TNF RECEPTOR 1 ACTIVITY” (Merck Sharp & Dohme LLC, priority 2023, published 2024)", "key": {"[1]": {"target": "T1, human TNFR2 ECD protein (Homo sapiens, UniProt P20333)", "T1 construct": "HRV 3C protease cleavage site (C); 6His (C, cleaved yes); made in house; host or cells: Sf21 insect cells (baculovirus), secreted", "T1 sequence (P20333 23-257)": "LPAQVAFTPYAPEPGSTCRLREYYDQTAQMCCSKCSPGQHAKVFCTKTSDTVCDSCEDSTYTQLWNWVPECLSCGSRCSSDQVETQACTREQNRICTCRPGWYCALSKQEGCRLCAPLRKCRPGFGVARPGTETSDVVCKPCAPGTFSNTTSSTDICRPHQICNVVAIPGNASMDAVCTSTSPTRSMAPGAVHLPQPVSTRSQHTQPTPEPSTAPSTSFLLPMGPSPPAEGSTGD", "test": "SPR off-target binding (selectivity) to human TNFR2 ECD", "summary_of_the_method": "(§1)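 Peptides are tested against captured biotin-tagged human TNFR1 ECD, with parallel TNFR2 ECD binding to check selectivity. Buffer: 10 mM HEPES pH 7.4, 150 mM NaCl, 3 mM EDTA, 0.05% P20, 2% DMSO.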"}, "[2]": {"target": "T2, human soluble TNFR1 (sTNFR1) (Homo sapiens, UniProt P19438)", "T2 construct": "made in house; host or cells: Sf21 (baculovirus)", "T2 sequence (P19438 with tags, fused parts or gaps)": "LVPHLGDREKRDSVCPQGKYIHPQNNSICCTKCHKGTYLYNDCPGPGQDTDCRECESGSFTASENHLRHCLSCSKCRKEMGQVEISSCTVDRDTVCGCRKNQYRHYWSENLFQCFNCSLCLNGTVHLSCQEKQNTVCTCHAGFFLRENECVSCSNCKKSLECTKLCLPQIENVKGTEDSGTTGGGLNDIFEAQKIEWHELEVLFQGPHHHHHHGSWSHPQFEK", "test": "Human sTNFR1-peptide displacement assay (LanthaScreen Eu TR-FRET binding assay)", "summary_of_the_method": "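Readout is the 665/615 nm TR-FRET ratio (Eu anti-His donor, streptavidin-Alexa647 acceptor), normalized to DMSO and saturating displacer, fit by Morrison-based five-parameter logistic for Kd^app. His-tagged sTNFR1 (1-211) prebound to 100 nM biotinylated peptide SEQ ID NO.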"}, "[3]": {"target": "T3, human TNFR1 extracellular domain (ECD) protein (Homo sapiens, UniProt P19438)", "T3 construct": "HRV 3C protease cleavage site (C); 6His (C, cleaved yes); made in house; host or cells: Sf21 insect cells (baculovirus), secreted", "T3 sequence (P19438 30-211)": "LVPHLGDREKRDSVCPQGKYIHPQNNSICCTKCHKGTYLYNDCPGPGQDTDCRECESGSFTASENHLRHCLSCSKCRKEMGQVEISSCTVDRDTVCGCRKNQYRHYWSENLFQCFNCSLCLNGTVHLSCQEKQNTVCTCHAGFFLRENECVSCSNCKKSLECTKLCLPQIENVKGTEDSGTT", "test": "SPR binding affinity to captured human TNFR1 ECD", "summary_of_the_method": "as §1"}}, "note": "Numbered stars: 1 amine (or outer) side, 2 acyl side, 3 side chain; on linkers, the order of the positions; unused ones are H or OH. Square brackets hold non-standard residues; d marks the D form. Peptide text beside a SMILES is read from it. Trp(βS-Me,7-OMe) = COc1cccc2c([C@H](C)[C@H](N)C(=O)O)c[nH]c12; X21 = COc1cccc2c([C@H](C)[C@H](N[*:1])C(=O)[*:2])c(C)[nH]c12; Trp(7-Br) = N[C@@H](Cc1c[nH]c2c(Br)cccc12)C(=O)O; Trp(7-CN) = N#Cc1cccc2c(C[C@H](N)C(=O)O)c[nH]c12; Trp(7-Cl) = N[C@@H](Cc1c[nH]c2c(Cl)cccc12)C(=O)O; Phe(3-CONH2) = NC(=O)c1cccc(C[C@H](N)C(=O)O)c1; Phe(4-CONH2) = NC(=O)c1ccc(C[C@H](N)C(=O)O)cc1; Phe(4-COOH) = N[C@@H](Cc1ccc(C(=O)O)cc1)C(=O)O; Trp(7-aza) = N[C@@H](Cc1c[nH]c2ncccc12)C(=O)O; dPro(trans-4-F) = O=C(O)[C@H]1C[C@H](F)CN1; Pip(5R-OH) = O=C(O)[C@@H]1CC[C@@H](O)CN1; X1 = O=C([C@@H]1CC[C@H](N[*:1])C1)[*:2]; X31 = O=C(CN(CCc1nnco1)[*:1])[*:2]; Pip(4-aza) = O=C(O)[C@@H]1CNCCN1; 4Pal = N[C@@H](Cc1ccncc1)C(=O)O; dHyp = O=C(O)[C@H]1C[C@H](O)CN1; aThr = C[C@H](O)[C@H](N)C(=O)O; Ahp(2) = CCCCC[C@H](N)C(=O)O; αMeS = C[C@](N)(CO)C(=O)O; Nle = CCCC[C@H](N)C(=O)O; Sar = CNCC(=O)O", "data": [{"smiles": "CCCC[C@@H]1NC(=O)[C@@H]2CC[C@@H](C2)NC(=O)[C@H]([C@@H](C)c2c(C)[nH]c3c(OC)cccc23)NC(=O)CN(C)C(=O)[C@H](Cc2ccc(C(=O)O)cc2)NC(=O)[C@H](Cc2ccc(C(N)=O)cc2)NC(=O)[C@](C)(CO)NC(=O)[C@H](Cc2c[nH]c3c(Cl)cccc23)NC(=O)[C@H](Cc2ccc(C(=O)O)cc2)NC(=O)[C@H](CC(N)=O)NC(=O)[C@H]2C[C@H](O)CN2C(=O)[C@H](Cc2c[nH]c3ccccc23)NC(=O)[C@@H]2CC[C@@H](O)CN2C(=O)[C@H](Cc2ccncc2)NC1=O", "note": "[SEQ ID NO. 106] (cyclo([4Pal][Pip(5R-OH)]W[dHyp]N[Phe(4-COOH)][Trp(7-Cl)][αMeS][Phe(4-CONH2)][Phe(4-COOH)][Sar][X21][X1][Nle]))", "values": [{"measurement": "Kd", "setting": "[1]", "result": "> 1000", "unit": "nM"}, {"measurement": "Kd", "setting": "[2]", "result": 0.05, "unit": "nM"}, {"measurement": "Kd", "setting": "[3]", "result": 0.04, "unit": "nM"}]}, {"smiles": "CCCCC[C@@H]1NC(=O)[C@@H]2CC[C@@H](C2)NC(=O)[C@H]([C@@H](C)c2c[nH]c3c(OC)cccc23)NC(=O)CN(C)C(=O)[C@H](Cc2cccc(C(N)=O)c2)NC(=O)[C@H](Cc2ccc(C(N)=O)cc2)NC(=O)[C@](C)(CO)NC(=O)[C@H](Cc2c[nH]c3c(Br)cccc23)NC(=O)[C@H](Cc2ccc(C(=O)O)cc2)NC(=O)[C@H](CC(N)=O)NC(=O)[C@H]2C[C@H](O)CN2C(=O)[C@H](Cc2c[nH]c3ccccc23)NC(=O)[C@@H]2CNCCN2C(=O)[C@H](Cc2ccncc2)NC1=O", "note": "[SEQ ID NO. 109] (cyclo([4Pal][Pip(4-aza)]W[dHyp]N[Phe(4-COOH)][Trp(7-Br)][αMeS][Phe(4-CONH2)][Phe(3-CONH2)][Sar][Trp(βS-Me,7-OMe)][X1][Ahp(2)]))", "values": [{"measurement": "Kd", "setting": "[1]", "result": "> 1000", "unit": "nM"}, {"measurement": "Kd", "setting": "[2]", "result": 0.11, "unit": "nM"}, {"measurement": "Kd", "setting": "[3]", "result": 0.05, "unit": "nM"}]}, {"smiles": "CCCC[C@@H]1NC(=O)[C@@H]2CC[C@@H](C2)NC(=O)[C@H]([C@@H](C)c2c[nH]c3c(OC)cccc23)NC(=O)CN(C)C(=O)[C@H](Cc2ccc(C(N)=O)cc2)NC(=O)[C@H](Cc2ccc(C(N)=O)cc2)NC(=O)[C@](C)(CO)NC(=O)[C@H](Cc2c[nH]c3c(C#N)cccc23)NC(=O)[C@H](Cc2ccc(C(=O)O)cc2)NC(=O)[C@H](CC(N)=O)NC(=O)[C@H]2C[C@H](F)CN2C(=O)[C@H](Cc2c[nH]c3ccccc23)NC(=O)[C@@H]2CC[C@@H](O)CN2C(=O)[C@H](Cc2ccncc2)NC1=O", "note": "[SEQ ID NO. 114] (cyclo([4Pal][Pip(5R-OH)]W[dPro(trans-4-F)]N[Phe(4-COOH)][Trp(7-CN)][αMeS][Phe(4-CONH2)][Phe(4-CONH2)][Sar][Trp(βS-Me,7-OMe)][X1][Nle]))", "values": [{"measurement": "Kd", "setting": "[1]", "result": "> 1000", "unit": "nM"}, {"measurement": "Kd", "setting": "[2]", "result": 0.02, "unit": "nM"}, {"measurement": "Kd", "setting": "[3]", "result": 0.02, "unit": "nM"}]}, {"smiles": "CCCC[C@@H]1NC(=O)[C@@H]2CC[C@@H](C2)NC(=O)[C@H]([C@@H](C)c2c[nH]c3c(OC)cccc23)NC(=O)CN(C)C(=O)[C@H](Cc2ccc(C(=O)O)cc2)NC(=O)[C@H](Cc2ccc(C(N)=O)cc2)NC(=O)[C@](C)(CO)NC(=O)[C@H](Cc2c[nH]c3c(C#N)cccc23)NC(=O)[C@H](Cc2ccncc2)NC(=O)[C@H](CC(N)=O)NC(=O)CN(CCc2nnco2)C(=O)[C@H](Cc2c[nH]c3ncccc23)NC(=O)[C@@H]2CC[C@@H](O)CN2C(=O)[C@H](Cc2ccncc2)NC1=O", "note": "[SEQ ID NO. 121] (cyclo([4Pal][Trp(7-CN)][αMeS][Phe(4-CONH2)][Phe(4-COOH)][Sar][Trp(βS-Me,7-OMe)][X1][Nle][4Pal][Pip(5R-OH)][Trp(7-aza)][X31]N))", "values": [{"measurement": "Kd", "setting": "[1]", "result": "> 1000", "unit": "nM"}, {"measurement": "Kd", "setting": "[2]", "result": 0.07, "unit": "nM"}, {"measurement": "Kd", "setting": "[3]", "result": 0.02, "unit": "nM"}]}, {"smiles": "CCCC[C@@H]1NC(=O)[C@@H]2CC[C@@H](C2)NC(=O)[C@H]([C@@H](C)c2c[nH]c3c(OC)cccc23)NC(=O)CN(C)C(=O)[C@H](Cc2ccc(C(N)=O)cc2)NC(=O)[C@H](Cc2ccc(C(N)=O)cc2)NC(=O)[C@](C)(CO)NC(=O)[C@H](Cc2c[nH]c3c(C#N)cccc23)NC(=O)[C@H](Cc2ccc(C(=O)O)cc2)NC(=O)[C@H]([C@H](C)O)NC(=O)[C@H]2C[C@H](O)CN2C(=O)[C@H](Cc2c[nH]c3ncccc23)NC(=O)[C@@H]2CC[C@@H](O)CN2C(=O)[C@H](Cc2ccncc2)NC1=O", "note": "[SEQ ID NO. 122] (cyclo([4Pal][Pip(5R-OH)][Trp(7-aza)][dHyp][aThr][Phe(4-COOH)][Trp(7-CN)][αMeS][Phe(4-CONH2)][Phe(4-CONH2)][Sar][Trp(βS-Me,7-OMe)][X1][Nle]))", "values": [{"measurement": "Kd", "setting": "[1]", "result": "> 1000", "unit": "nM"}, {"measurement": "Kd", "setting": "[2]", "result": 0.08, "unit": "nM"}, {"measurement": "Kd", "setting": "[3]", "result": 0.04, "unit": "nM"}]}]}
